Consider 1 compound from patent US8642837B2, “Method to increase pathogen resistance in plants” (Expressive Research B.V., priority 2004, dated 2014).

The test relates to callose deposition. The test can be described thus: Callose deposition in plants tested with Peronospora parasitica. It is filed as in vivo, Arabidopsis. The conditions noted are these: treatment with BABA, positive control.

Regarding `CC(N)CC(=O)O` (stereo not drawn) [BABA, β-aminobutyric acid], the callose deposition is reported as “increased”.
